Common to all, as to assay type: ADME
Data set [1] can be described thus: Activity at P-gp (unknown origin) expressed in baculovirus-infected HEK293 cells assessed as drug transport at 400 uM after 10 mins by reversed-phase HPLC analysis in presence of AMP. The conditions noted are these: human, hek293, 10 min, BLD = below limit of detection.
Data set [2] addresses T1, ATP-binding cassette sub-family C member 4 (Homo sapiens, UniProt O15439).
T1 sequence (O15439 whole entry): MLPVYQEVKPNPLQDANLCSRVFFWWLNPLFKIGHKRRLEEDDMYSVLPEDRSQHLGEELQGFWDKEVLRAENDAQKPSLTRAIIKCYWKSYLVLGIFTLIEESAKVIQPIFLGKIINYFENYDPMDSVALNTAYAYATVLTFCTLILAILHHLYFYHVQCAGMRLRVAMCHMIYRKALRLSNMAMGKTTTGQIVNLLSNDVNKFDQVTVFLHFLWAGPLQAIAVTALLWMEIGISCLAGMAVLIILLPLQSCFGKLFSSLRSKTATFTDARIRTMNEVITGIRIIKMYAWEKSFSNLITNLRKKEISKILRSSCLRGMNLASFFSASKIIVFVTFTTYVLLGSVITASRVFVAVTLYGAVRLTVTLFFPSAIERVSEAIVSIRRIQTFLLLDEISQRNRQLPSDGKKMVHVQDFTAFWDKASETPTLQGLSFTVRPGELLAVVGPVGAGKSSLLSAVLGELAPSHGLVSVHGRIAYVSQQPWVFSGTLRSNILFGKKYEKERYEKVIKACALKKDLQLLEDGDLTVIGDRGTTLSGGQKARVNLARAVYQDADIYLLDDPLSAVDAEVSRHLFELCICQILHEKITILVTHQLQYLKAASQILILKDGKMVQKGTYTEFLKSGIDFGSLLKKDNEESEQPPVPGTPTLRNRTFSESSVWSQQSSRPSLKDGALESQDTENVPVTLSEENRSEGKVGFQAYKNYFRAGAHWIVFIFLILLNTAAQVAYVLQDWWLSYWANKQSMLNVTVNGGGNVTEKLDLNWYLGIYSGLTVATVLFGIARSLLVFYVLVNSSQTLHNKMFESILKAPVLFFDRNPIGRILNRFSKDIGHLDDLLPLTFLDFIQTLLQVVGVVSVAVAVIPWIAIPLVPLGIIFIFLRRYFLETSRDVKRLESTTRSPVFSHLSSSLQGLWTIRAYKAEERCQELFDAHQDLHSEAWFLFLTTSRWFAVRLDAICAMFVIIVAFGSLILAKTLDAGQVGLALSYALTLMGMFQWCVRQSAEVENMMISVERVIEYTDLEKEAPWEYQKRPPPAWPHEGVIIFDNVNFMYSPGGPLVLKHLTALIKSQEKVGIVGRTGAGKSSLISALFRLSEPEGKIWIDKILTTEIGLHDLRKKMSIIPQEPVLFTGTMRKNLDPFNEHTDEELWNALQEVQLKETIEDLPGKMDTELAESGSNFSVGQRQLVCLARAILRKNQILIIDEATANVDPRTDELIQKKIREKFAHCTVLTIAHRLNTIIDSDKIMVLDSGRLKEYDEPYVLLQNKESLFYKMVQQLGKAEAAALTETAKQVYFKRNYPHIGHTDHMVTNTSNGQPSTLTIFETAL
Kind of data set: Activity at MRP4 (unknown origin) expressed in baculovirus-infected HEK293 cells assessed as drug transport at 400 uM after 10 mins by reversed-phase HPLC analysis in presence of AMP. The conditions noted are these: hek293, 10 min, BLD = below limit of detection.

Data set [3] has as its target ATP-binding cassette sub-family C member 3 (Homo sapiens, UniProt O15438). Kind of data set: Activity at MRP3 (unknown origin) expressed in baculovirus-infected HEK293 cells assessed as drug transport at 400 uM after 10 mins by reversed-phase HPLC analysis in presence of AMP. Conditions: hek293, 10 min, BLD = below limit of detection; call rule not given here.
The target of data set [4] is ATP-binding cassette sub-family C member 2 (Homo sapiens, UniProt Q92887). Kind of data set: Activity at MRP2 (unknown origin) expressed in baculovirus-infected HEK293 cells assessed as drug transport at 400 uM after 10 mins by reversed-phase HPLC analysis in presence of AMP. Conditions: hek293, 10 min, BLD = below limit of detection.
Chain of ATP-binding cassette sub-family C member 2 (Q92887 whole entry): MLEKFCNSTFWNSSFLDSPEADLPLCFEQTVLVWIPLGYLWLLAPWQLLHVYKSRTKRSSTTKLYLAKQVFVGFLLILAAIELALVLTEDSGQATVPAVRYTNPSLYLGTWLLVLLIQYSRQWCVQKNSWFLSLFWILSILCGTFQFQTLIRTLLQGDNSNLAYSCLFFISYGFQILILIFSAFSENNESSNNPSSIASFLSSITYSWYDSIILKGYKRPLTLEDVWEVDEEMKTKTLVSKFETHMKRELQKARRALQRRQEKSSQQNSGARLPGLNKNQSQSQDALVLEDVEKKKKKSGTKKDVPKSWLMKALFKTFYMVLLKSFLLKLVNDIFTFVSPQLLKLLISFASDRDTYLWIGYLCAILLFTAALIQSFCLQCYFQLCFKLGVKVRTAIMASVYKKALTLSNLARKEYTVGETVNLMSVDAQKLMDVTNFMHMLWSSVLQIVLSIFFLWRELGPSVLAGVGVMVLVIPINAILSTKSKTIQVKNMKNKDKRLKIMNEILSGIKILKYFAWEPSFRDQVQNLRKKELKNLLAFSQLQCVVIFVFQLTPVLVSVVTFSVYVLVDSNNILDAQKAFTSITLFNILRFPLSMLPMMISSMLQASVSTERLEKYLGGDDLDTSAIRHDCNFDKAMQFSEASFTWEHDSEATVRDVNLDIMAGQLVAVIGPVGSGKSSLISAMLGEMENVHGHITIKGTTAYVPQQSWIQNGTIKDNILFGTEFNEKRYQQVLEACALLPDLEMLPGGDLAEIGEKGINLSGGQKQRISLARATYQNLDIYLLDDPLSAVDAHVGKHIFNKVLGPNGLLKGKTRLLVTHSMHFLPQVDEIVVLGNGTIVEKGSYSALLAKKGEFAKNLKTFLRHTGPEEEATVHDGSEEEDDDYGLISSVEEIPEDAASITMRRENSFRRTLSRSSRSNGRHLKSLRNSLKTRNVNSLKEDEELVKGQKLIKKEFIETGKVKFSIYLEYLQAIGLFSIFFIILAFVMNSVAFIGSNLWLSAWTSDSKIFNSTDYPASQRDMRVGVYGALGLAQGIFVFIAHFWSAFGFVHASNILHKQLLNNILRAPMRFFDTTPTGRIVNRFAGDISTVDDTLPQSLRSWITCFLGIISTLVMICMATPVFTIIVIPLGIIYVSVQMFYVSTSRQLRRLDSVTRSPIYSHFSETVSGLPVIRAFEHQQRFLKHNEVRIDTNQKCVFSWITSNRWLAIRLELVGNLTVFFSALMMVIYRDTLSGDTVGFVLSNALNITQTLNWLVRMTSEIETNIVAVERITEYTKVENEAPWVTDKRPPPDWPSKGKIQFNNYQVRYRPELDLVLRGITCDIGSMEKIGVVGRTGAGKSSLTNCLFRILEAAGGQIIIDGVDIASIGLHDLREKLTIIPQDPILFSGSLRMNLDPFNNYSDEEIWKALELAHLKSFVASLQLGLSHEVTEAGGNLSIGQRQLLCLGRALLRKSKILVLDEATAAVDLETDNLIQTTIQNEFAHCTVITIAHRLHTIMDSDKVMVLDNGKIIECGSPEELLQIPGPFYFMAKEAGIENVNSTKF
The target of data set [5] is Multidrug resistance-associated protein 1 (Homo sapiens, UniProt P33527). Kind of data set: Activity at MRP1 (unknown origin) expressed in baculovirus-infected HEK293 cells assessed as drug transport at 400 uM after 10 mins by reversed-phase HPLC analysis in presence of AMP. The conditions noted are these: hek293, 10 min, BLD = below limit of detection.
Chain of Multidrug resistance-associated protein 1 (P33527 whole entry): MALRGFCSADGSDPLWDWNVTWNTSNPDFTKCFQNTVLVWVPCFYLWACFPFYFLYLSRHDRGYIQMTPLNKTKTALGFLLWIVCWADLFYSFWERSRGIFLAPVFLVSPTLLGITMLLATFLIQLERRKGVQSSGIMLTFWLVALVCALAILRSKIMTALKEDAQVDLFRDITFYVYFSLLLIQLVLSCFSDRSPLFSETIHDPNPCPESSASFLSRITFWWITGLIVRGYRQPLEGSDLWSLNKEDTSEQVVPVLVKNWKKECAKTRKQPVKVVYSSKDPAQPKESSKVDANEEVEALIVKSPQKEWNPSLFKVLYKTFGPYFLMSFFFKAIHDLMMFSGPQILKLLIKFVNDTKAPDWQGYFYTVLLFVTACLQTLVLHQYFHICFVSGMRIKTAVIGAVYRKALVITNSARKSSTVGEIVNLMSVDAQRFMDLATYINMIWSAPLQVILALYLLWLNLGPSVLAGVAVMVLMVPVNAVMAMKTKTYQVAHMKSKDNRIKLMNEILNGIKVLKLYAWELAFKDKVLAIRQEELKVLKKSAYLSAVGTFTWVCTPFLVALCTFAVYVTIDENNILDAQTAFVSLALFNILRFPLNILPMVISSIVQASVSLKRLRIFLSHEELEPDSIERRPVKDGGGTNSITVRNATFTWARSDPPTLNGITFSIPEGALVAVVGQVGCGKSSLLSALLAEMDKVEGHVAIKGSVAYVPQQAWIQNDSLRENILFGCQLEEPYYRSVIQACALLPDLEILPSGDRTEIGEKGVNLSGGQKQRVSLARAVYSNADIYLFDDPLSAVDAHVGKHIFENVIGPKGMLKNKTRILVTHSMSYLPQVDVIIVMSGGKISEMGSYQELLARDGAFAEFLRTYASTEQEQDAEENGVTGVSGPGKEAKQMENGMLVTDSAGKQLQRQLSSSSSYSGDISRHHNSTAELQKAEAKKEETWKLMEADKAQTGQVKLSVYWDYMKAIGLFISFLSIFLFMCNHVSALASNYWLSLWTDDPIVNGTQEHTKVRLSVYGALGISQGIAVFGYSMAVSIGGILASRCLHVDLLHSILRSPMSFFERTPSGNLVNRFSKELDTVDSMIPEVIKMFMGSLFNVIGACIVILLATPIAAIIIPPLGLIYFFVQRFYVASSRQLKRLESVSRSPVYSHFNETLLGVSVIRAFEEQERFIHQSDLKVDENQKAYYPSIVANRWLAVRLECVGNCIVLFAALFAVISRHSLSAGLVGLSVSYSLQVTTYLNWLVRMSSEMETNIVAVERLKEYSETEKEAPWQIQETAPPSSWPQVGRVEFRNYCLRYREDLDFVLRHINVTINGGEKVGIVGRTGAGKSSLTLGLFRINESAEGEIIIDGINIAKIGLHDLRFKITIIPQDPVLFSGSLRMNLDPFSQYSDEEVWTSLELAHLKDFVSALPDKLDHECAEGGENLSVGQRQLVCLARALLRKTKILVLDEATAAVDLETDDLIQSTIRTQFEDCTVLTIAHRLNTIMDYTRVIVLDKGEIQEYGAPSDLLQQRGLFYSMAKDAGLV
Data set [6] is described as follows: Activity at P-gp (unknown origin) expressed in baculovirus-infected HEK293 cells assessed as drug transport at 400 uM after 10 mins by reversed-phase HPLC analysis in presence of ATP. The conditions noted are these: human, hek293, 10 min.
Data set [7] concerns the target T2, Broad substrate specificity ATP-binding cassette transporter ABCG2 (Homo sapiens, UniProt Q9UNQ0).
T2 sequence (Q9UNQ0 whole entry): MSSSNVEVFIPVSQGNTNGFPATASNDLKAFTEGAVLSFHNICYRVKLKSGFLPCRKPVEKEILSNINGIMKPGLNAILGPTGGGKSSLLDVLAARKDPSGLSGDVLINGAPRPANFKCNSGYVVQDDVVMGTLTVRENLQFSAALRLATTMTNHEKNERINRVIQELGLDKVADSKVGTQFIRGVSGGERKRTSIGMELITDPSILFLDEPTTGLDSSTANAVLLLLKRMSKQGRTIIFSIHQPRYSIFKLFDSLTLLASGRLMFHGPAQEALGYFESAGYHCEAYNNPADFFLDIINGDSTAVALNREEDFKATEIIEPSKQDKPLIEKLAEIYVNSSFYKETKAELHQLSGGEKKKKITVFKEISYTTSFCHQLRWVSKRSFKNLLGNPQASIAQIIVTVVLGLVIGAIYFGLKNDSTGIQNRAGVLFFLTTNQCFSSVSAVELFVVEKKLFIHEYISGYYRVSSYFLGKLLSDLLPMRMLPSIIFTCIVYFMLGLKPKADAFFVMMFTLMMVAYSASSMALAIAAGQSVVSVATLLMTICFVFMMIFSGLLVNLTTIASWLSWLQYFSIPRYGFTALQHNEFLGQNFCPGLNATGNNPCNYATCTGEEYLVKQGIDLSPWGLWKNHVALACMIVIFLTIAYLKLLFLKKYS
Kind of data set: Activity at BCRP (unknown origin) expressed in baculovirus-infected HEK293 cells assessed as drug transport at 400 uM after 10 mins by reversed-phase HPLC analysis in presence of AMP. The conditions noted are these: hek293, 10 min, BLD = below limit of detection.

Chain of ATP-binding cassette sub-family C member 3 (O15438 whole entry): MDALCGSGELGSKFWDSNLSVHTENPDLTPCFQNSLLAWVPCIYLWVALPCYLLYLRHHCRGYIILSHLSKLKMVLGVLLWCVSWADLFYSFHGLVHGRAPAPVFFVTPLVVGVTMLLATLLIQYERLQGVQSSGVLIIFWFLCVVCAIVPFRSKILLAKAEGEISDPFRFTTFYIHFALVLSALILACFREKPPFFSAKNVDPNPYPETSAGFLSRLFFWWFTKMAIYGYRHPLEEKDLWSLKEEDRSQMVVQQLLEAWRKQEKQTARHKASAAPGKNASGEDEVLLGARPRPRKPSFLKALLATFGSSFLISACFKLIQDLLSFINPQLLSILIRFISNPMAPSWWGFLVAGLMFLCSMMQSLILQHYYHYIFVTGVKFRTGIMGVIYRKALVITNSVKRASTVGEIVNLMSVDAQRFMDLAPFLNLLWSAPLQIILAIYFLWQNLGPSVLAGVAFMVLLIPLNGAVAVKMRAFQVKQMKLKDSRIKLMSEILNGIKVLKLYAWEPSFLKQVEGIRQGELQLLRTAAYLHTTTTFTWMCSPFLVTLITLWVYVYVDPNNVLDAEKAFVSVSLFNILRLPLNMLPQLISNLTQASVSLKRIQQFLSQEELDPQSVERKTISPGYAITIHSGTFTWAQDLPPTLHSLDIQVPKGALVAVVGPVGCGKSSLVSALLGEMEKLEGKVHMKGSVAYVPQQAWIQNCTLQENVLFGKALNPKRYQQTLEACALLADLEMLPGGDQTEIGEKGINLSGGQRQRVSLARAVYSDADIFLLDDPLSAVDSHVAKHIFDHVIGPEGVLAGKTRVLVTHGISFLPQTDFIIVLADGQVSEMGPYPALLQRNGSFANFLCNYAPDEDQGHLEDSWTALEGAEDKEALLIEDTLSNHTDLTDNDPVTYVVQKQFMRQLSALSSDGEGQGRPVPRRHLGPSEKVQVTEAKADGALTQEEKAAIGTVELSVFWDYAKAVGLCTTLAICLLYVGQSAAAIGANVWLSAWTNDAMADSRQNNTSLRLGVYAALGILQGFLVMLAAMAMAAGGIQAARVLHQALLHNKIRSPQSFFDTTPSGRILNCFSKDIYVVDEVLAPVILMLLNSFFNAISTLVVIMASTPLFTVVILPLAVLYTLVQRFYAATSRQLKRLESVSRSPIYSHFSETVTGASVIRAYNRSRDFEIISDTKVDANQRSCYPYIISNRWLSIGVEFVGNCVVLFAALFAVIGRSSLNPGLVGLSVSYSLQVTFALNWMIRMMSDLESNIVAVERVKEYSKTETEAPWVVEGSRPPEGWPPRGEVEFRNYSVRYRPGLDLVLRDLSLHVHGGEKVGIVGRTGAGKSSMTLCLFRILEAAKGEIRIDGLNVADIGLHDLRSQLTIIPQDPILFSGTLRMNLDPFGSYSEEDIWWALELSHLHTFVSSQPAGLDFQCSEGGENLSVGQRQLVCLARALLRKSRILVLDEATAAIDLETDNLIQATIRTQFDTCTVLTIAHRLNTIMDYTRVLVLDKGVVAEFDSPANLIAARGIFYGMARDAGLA

Consider `O=C(O)[C@H]1O[C@@H](Oc2ccc3ccc(=O)oc3c2)[C@H](O)[C@@H](O)[C@@H]1O`, for which the Drug transport result in data set [1] was “BLD”; in data set [2], “BLD”; in data set [3] it was “BLD”; in data set [4], “BLD”; in data set [5], “BLD”; in data set [6] it was “Not Active”. In addition, the Drug transport entry in data set [7] is “BLD”.

The values are drawn from ChEMBL document CHEMBL3526030, “Transport of the coumarin metabolite 7-hydroxycoumarin glucuronide is mediated via multidrug resistance-associated proteins 3 and 4” (Drug Metab Dispos, 2012).
